Structures are written as SMILES.

The data set is described as follows: HILIC, Waters ACQUITY UPLC BEH Amide, 100 × 2.1 mm, 1.7 µm; A: water + 0.125% formic acid + 10 mM ammonium formate; B: 5% water + 95% acetonitrile + 0.125% formic acid + 10 mM ammonium formate; gradient (min/%B) 0/100 2/100 7.7/70 9.5/40 10.25/30 12.75/100 17/100. Particulars: stereoisomer not certain.
Consider `Nc1ncnc2c1[nH]c(=O)n2C1CC(O)C(CO)O1` (stereo not drawn) [8-Oxo-2-deoxyadenosine], for which the LC retention time is 5.11 min.

For `Nc1[nH]c(=O)ncc1F` [5-Flurocytosine], the LC retention time was determined as 4.62 min.

Consider `CC(NC(C)(C)C)C(=O)c1cccc(Cl)c1` (stereo not drawn) [Bupropion], for which the LC retention time came to 2.22 min.

In the case of `O=S(=O)(O)CCNC(CO)(CO)CO` [TES], the LC retention time was 7.7 min.

In the case of `CNC(=C[N+](=O)[O-])NCCSCc1ccc(CN(C)C)o1` [Ranitidine], the LC retention time was 5.18 min.

Turning to `CC(C)CN` [Isobutylamine], the LC retention time turned out to be 5.04 min.

As for `O=c1n(CCCN2CCN(c3cccc(Cl)c3)CC2)nc2ccccn12` [Trazodone], the LC retention time worked out at 2.38 min.

With `CN(C)CC(=O)O` [N,N-Dimethylglycine], the LC retention time was found to be 7.4 min.

Regarding `Cc1ccccc1-n1c(C)nc2ccccc2c1=O` [Methaqualone], the LC retention time came out at 1.1 min.

Regarding `CN(C)c1ccc(N=Nc2ccccc2)cc1` [p-(Dimethylamino)azobenzene [methyl yellow]], the LC retention time is 0.93 min.

`COC(=O)CCc1ccc(OCC(O)CNC(C)C)cc1` (stereo not drawn) [Esmolol]: the LC retention time was found to be 3.13 min.

As for `Cc1cc2nc3c(=O)[nH]c(=O)nc-3n(CC(O)C(O)C(O)COP(=O)(O)OP(=O)(O)OCC3OC(n4cnc5c(N)ncnc54)C(O)C3O)c2cc1C` (stereo not drawn), the LC retention time worked out at 9.52 min.

Consider `C=COC(N)=O` [Vinyl Carbamate], for which the LC retention time stood at 1.34 min.

For the molecule `CCOC(=O)c1cncn1C(C)c1ccccc1` (stereo not drawn) [Etomidate], the LC retention time was 0.98 min.

On to `NC(CC(=O)O)C(=O)O` (stereo not drawn) [Aspartic acid], for which the LC retention time was found to be 9.33 min.

Take `CC12CCC(=O)C=C1CCC1C2CCC2(C)C1CCC2(C)O` (stereo not drawn) [Methyltestosterone]: the LC retention time worked out at 1.04 min.

On to `O=c1ncc(F)c[nH]1` [5-Fluro-2-pyrimidone], for which the LC retention time is 1.77 min.

Consider `CN1C(=O)C(O)CC1c1cccnc1` (stereo not drawn) [trans-3'-Hydroxycotinine], for which the LC retention time stood at 2.02 min.

As for `Nc1nc2ccc(Cl)cc2c2nc(-c3ccco3)nn12`, the LC retention time stood at 1.07 min.

As to `CCCCCCCCCOc1ccc2[nH]cc(CCN)c2c1` [5-Nonyloxytryptamine], the LC retention time is 3.4 min.

Take `Cc1cnc(=O)[nH]c1N` [5-Methylcytosine]: the LC retention time stood at 6.62 min.

As to `CN(CCCN1c2ccccc2CCc2ccccc21)CC(=O)c1ccc(Cl)cc1` [Lofepramine], the LC retention time is 1.91 min.

On to `COc1cc2c(cc1OC)C(=O)C(CC1CCN(Cc3ccccc3)CC1)C2` (stereo not drawn) [Donepezil], for which the LC retention time was determined as 2.44 min.

Turning to `CC(O)C(NC(=O)C(N)CCC(=O)O)C(=O)O` (stereo not drawn) [Glu-Thr], the LC retention time came out at 9.44 min.

Turning to `O=c1[nH]c(=O)n(C2CCCO2)cc1F` (stereo not drawn) [Tegafur], the LC retention time came out at 1.22 min.

Take `CC(C)(O)C1C2OC(=O)C1C1(O)CC3OC34C(=O)OC2C14C` (stereo not drawn) [Picrotin]: the LC retention time is 1.21 min.

With `CCC=CCC1C(=O)CCC1CC(=O)OC` (stereo not drawn) [Methyl jasmonate], the LC retention time stood at 1.04 min.

For `CCCC(=O)OCC` [Ethylbutanoate], the LC retention time is 4.88 min.

As to `CNc1ccccc1C(=O)O` [N-Methylanthranilic acid], the LC retention time was 1.22 min.

As to `C[Si](C)(C)CCC(=O)O` [3-Trimethylsilylpropionic acid], the LC retention time came out at 5.64 min.

As to `CC(=O)NCCCCNCCCN` [N8-Acetylspermidine], the LC retention time came to 8.87 min.

As to `CCCCCCc1ccc(O)cc1O` [4-Hexylresorcinol], the LC retention time is 1.63 min.

For `CC(C)CCCC(C)C1CCC2C3C(O)C=C4CC(O)CCC4(C)C3CCC12C` (stereo not drawn) [5-Cholesten-3-beta-7-alpha-diol], the LC retention time came out at 3.36 min.

For `Nc1ccc(O)cc1` [4-Aminophenol], the LC retention time came to 1.34 min.

For the molecule `Cc1cccc(C)c1NC(=O)C(C)N` (stereo not drawn) [Tocainide], the LC retention time stood at 4.97 min.

On to `COc1cc(C(=O)NS(=O)(=O)c2ccccc2C)ccc1Cc1cn(C)c2ccc(NC(=O)OC3CCCC3)cc12` [Zafirlukast], for which the LC retention time turned out to be 1 min.

With `CC(C=CC1(O)C(C)=CC(=O)CC1(C)C)=CC(=O)O` (stereo not drawn) [Abscisic acid], the LC retention time stood at 1.33 min.

As for `O=C(O)Cc1c[nH]c2ccccc12` [3-Indoleacetic acid], the LC retention time amounted to 1.33 min.

`CC1OC(Oc2c(-c3ccc(O)c(O)c3)oc3cc(O)cc(O)c3c2=O)C(O)C(O)C1O` (stereo not drawn) [Quercetin-3-ramnoside]: the LC retention time turned out to be 4.7 min.

Turning to `COC(=O)C1C(O)CC2CCC1N2C` (stereo not drawn) [Ecgonine methylester], the LC retention time is 4.18 min.

With `CC(CCC(=O)O)C1CCC2C3C(=O)CC4CC(=O)CCC4(C)C3CC(=O)C12C` (stereo not drawn) [Dehydrocholic acid], the LC retention time was 1.16 min.

With `NC(Cc1ccc(OP(=O)(O)O)cc1)C(=O)O` (stereo not drawn) [Phosphotyrosine], the LC retention time stood at 9.72 min.

As to `Nc1nc2c(ncn2C2CC(O)C(COP(=O)(O)O)O2)c(=O)[nH]1` (stereo not drawn) [2'-Deoxyguanosine 5'-monophosphate], the LC retention time turned out to be 9.25 min.

`Nc1ncnc2c1ncn2C1CC(O)C(COP(=O)(O)O)O1` (stereo not drawn) [2'-Deoxyadenosine-5'-monophosphate]: the LC retention time was 8.63 min.

Regarding `CC12CC(=O)C3C(CCC4=CC(=O)CCC43C)C1CCC2=O` (stereo not drawn) [Adrenosterone], the LC retention time came out at 1.1 min.

On to `O=CNC1CCCCC1` [N-Cyclohexylformamide], for which the LC retention time was 1.2 min.

In the case of `Nc1ncnc2c1ncn2C1CC2OP(=O)(O)OCC2O1` (stereo not drawn) [3',5'-Cyclic dAMP], the LC retention time came to 7.29 min.

On to `Nc1ccn(C2CC(O)C(CO)O2)c(=O)n1` (stereo not drawn) [2'-Deoxycytidine], for which the LC retention time amounted to 5.87 min.

Regarding `COc1cc(-c2oc3cc(O)cc(O)c3c(=O)c2OC2OC(COC3OC(C)C(O)C(O)C3O)C(O)C(O)C2O)ccc1O` (stereo not drawn) [Isorhamnetin-3-O-rutinoside], the LC retention time was determined as 6.02 min.

For `CCC1OC(=O)C(C)C(OC2CC(C)(OC)C(O)C(C)O2)C(C)C(OC2OC(C)CC(N(C)C)C2O)C(C)(OC)CC(C)C(=O)C(C)C(O)C1(C)O` (stereo not drawn) [Clarithromycin], the LC retention time turned out to be 3 min.

For `CS(=O)CCCCC(=NO)SC1OC(CO)C(O)C(O)C1O` (stereo not drawn) [Desulfo Glucoraphanin], the LC retention time amounted to 6.61 min.

For the molecule `COC(=O)C1C(OC(=O)c2ccccc2)CC2CCC1N2C` (stereo not drawn) [Cocaine], the LC retention time came to 2.2 min.

In the case of `CC(C)C(NC(=O)C(N)CCC(=O)O)C(=O)NC(Cc1ccccc1)C(=O)O` (stereo not drawn) [Glu-Val-Phe], the LC retention time was 7.66 min.

Regarding `CC12CC3CC(C)(C1)CC(N)(C3)C2` [Memantine], the LC retention time came to 4.24 min.

Consider `O=C1CN=C(c2ccccc2)c2cc(Cl)ccc2N1CC1CC1` [Prazepam], for which the LC retention time came to 1.07 min.

For the molecule `O=C(O)C(O)c1ccc(O)c(O)c1` (stereo not drawn) [3,4-Dihydroxymandelic acid], the LC retention time turned out to be 2.3 min.

Regarding `O=C1CC(c2ccc(O)cc2)Oc2cc(O)ccc21` (stereo not drawn) [Liquiritigenin], the LC retention time turned out to be 1.3 min.

In the case of `O=c1c(-c2ccc(O)cc2)coc2cc(O)ccc12` [Daidzein], the LC retention time was determined as 1.39 min.

For the origin of these results see the RepoRT retention time repository.
